How the values were obtained:
[1] = Heavy metal removal ability test in contaminated soil (ICP-MS), cadmium; details: for Cadmium (Cd) Adsorption amount: contaminated soil; for Cadmium (Cd) Adsorption rate: relative to EDTA control
How it was run: (§1)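 Sieved soil spiked with aqueous heavy metal, mixed 5 min with 3 ml of test solution, then extracted with 50 ml distilled water (20 min stirring, 1 h settling). Supernatant metal measured by ICP-MS; adsorption rate (%) expressed relative to control.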

[2] = Formaldehyde (formalin) removing ability test (GC); details: 2.0% formaldehyde solution, 3 molar equivalents of compound, room temperature; for Formaldehyde GC Area, 30 min: after 30 min; for Formaldehyde GC Area, 180 min: after 180 min; for Formaldehyde GC Area, Initial: initial state
[3] = Heavy metal removal ability test in contaminated soil (ICP-MS), arsenic; details: for Arsenic (As) Adsorption amount: contaminated soil; for Arsenic (As) Adsorption rate: relative to EDTA control
How it was run: as §1

human skin = assay: Skin irritation test of active ingredient (patch method, CTFA guidelines); type: in vivo; details: 24 h patch; for Test result (number of subject) (+) / Test result (number of subject) (++) / Test result (number of subject) (±) / Test result (number of subject) (−): 20 people; for Test result (number of subject) (+): (+) apparent reddening; for Test result (number of subject) (++): (++) more reddened and swollen; for Test result (number of subject) (±): (±) slightly reddish; for Test result (number of subject) (−): (−) no erythema
[4] = Heavy metal removal ability test in contaminated soil (ICP-MS), nickel; details: for Nickel (Ni) Adsorption amount: contaminated soil; for Nickel (Ni) Adsorption rate: relative to EDTA control
How it was run: as §1

[5] = Heavy metal removal ability test in contaminated soil around a factory (WAK-Me test kit); details: 1.0 wt % aqueous solution, colour comparison test kit
Protocol: The contaminated soil around the factory in the industrial complex was collected, pulverized, and meshed to prepare fine particles of soil samples.
Each 3 ml of aqueous solutions for restoring soil was added to soil samples and mixed for 5 minutes.

SMILES | Cadmium (Cd) Adsorption amount ([1]; content 0.5% aqueous solution) [ppm] | Cadmium (Cd) Adsorption rate ([1]; content 0.5%) [%] | Cadmium (Cd) Adsorption amount ([1]; content 1.0% aqueous solution) [ppm] | Cadmium (Cd) Adsorption rate ([1]; content 1.0%) [%] | Cadmium (Cd) Adsorption amount ([1]; content 2.0% aqueous solution) [ppm] | Cadmium (Cd) Adsorption rate ([1]; content 2.0%) [%] | Formaldehyde GC Area, 30 min [2] [mAU*min] | Formaldehyde GC Area, 180 min [2] [mAU*min] | Formaldehyde GC Area, Initial [2] [mAU*min] | Arsenic (As) Adsorption amount ([3]; content 0.5% aqueous solution) [ppm] | Arsenic (As) Adsorption rate ([3]; content 0.5%) [%] | Arsenic (As) Adsorption amount ([3]; content 1.0% aqueous solution) [ppm] | Arsenic (As) Adsorption rate ([3]; content 1.0%) [%] | Arsenic (As) Adsorption amount ([3]; content 2.0% aqueous solution) [ppm] | Arsenic (As) Adsorption rate ([3]; content 2.0%) [%] | Test result (number of subject) (+) (human skin; content 0.1 wt %) | Test result (number of subject) (++) (human skin; content 0.1 wt %) | Test result (number of subject) (±) (human skin; content 0.1 wt %) | Test result (number of subject) (−) (human skin; content 0.1 wt %) | Degree of irritation (human skin; content 0.1 wt %) | further results
O=C(O)c1ccc(N2CCCN(c3ccc(C(=O)O)cc3)CCN(c3ccc(C(=O)O)cc3)CCCN(c3ccc(C(=O)O)cc3)CC2)cc1 [Embodiment 10, 4,4′,4″,4′″-(1,4,8,11-tetraazacyclotetradecane-1,4,8,11-tetrayl)tetrabenzoic Acid] | 58 | 141 | 65 | 159 | 71 | 173 | 0.171 | 0 | 0.305 | 39 | 156 | 42 | 168 | 46 | 184 | 0 | 0 | 0 | 20 | 0 | Grade for skin irritation (human skin; content 0.1 wt %): I (Degree of irritation 0-0.1: Grade I (unstimulated)); Test result (number of subject) (+) (human skin; content 0.5 wt %): 0; Test result (number of subject) (++) (human skin; content 0.5 wt %): 0; Test result (number of subject) (±) (human skin; content 0.5 wt %): 0; Test result (number of subject) (−) (human skin; content 0.5 wt %): 20; Degree of irritation (human skin; content 0.5 wt %): 0; Grade for skin irritation (human skin; content 0.5 wt %): I (Degree of irritation 0-0.1: Grade I (unstimulated)); Test result (number of subject) (+) (human skin; content 1.0 wt %): 0; Test result (number of subject) (++) (human skin; content 1.0 wt %): 0; Test result (number of subject) (±) (human skin; content 1.0 wt %): 1; Test result (number of subject) (−) (human skin; content 1.0 wt %): 19; Degree of irritation (human skin; content 1.0 wt %): 0.05; Grade for skin irritation (human skin; content 1.0 wt %): I (Degree of irritation 0-0.1: Grade I (unstimulated)); Nickel (Ni) Adsorption amount ([4]; content 0.5% aqueous solution): 79 ppm; Nickel (Ni) Adsorption rate ([4]; content 0.5%): 161%; Nickel (Ni) Adsorption amount ([4]; content 1.0% aqueous solution): 92 ppm; Nickel (Ni) Adsorption rate ([4]; content 1.0%): 188%; Nickel (Ni) Adsorption amount ([4]; content 2.0% aqueous solution): 94 ppm; Nickel (Ni) Adsorption rate ([4]; content 2.0%): 192%; Total amount (Cu, Zn, Mn, Ni, Cd) [5]: ≤5 ppm
O=C(O)c1ccc(N2CCCN(c3ccc(C(=O)O)o3)CCN(c3ccc(C(=O)O)o3)CCCN(c3ccc(C(=O)O)o3)CC2)o1 [Embodiment 12, 5,5′,5″,5′″-(1,4,8,11-tetraazacyclotetradecane-1,4,8,11-tetrayl)tetrakis(furan-2-carboxylic Acid)] | 61 | 149 | 67 | 163 | 72 | 176 | 0.170 | 0 | 0.305 | 41 | 164 | 43 | 172 | 46 | 184 | 0 | 0 | 0 | 20 | 0 | Grade for skin irritation (human skin; content 0.1 wt %): I (Degree of irritation 0-0.1: Grade I (unstimulated)); Test result (number of subject) (+) (human skin; content 0.5 wt %): 0; Test result (number of subject) (++) (human skin; content 0.5 wt %): 0; Test result (number of subject) (±) (human skin; content 0.5 wt %): 0; Test result (number of subject) (−) (human skin; content 0.5 wt %): 20; Degree of irritation (human skin; content 0.5 wt %): 0; Grade for skin irritation (human skin; content 0.5 wt %): I (Degree of irritation 0-0.1: Grade I (unstimulated)); Test result (number of subject) (+) (human skin; content 1.0 wt %): 0; Test result (number of subject) (++) (human skin; content 1.0 wt %): 0; Test result (number of subject) (±) (human skin; content 1.0 wt %): 1; Test result (number of subject) (−) (human skin; content 1.0 wt %): 19; Degree of irritation (human skin; content 1.0 wt %): 0.05; Grade for skin irritation (human skin; content 1.0 wt %): I (Degree of irritation 0-0.1: Grade I (unstimulated)); Nickel (Ni) Adsorption amount ([4]; content 0.5% aqueous solution): 77 ppm; Nickel (Ni) Adsorption rate ([4]; content 0.5%): 157%; Nickel (Ni) Adsorption amount ([4]; content 1.0% aqueous solution): 84 ppm; Nickel (Ni) Adsorption rate ([4]; content 1.0%): 171%; Nickel (Ni) Adsorption amount ([4]; content 2.0% aqueous solution): 89 ppm; Nickel (Ni) Adsorption rate ([4]; content 2.0%): 182%; Total amount (Cu, Zn, Mn, Ni, Cd) [5]: ≤5 ppm
NCCNCCNCCN [Trientine, Triethylenetetramine, reference compound] | 68 | 166 | 75 | 183 | 79 | 193 | 0.168 | 0 | 0.305 | 49 | 196 | 52 | 208 | 59 | 236 | 0 | 0 | 0 | 20 | 0 | Grade for skin irritation (human skin; content 0.1 wt %): I (Degree of irritation 0-0.1: Grade I (unstimulated)); Test result (number of subject) (+) (human skin; content 0.5 wt %): 0; Test result (number of subject) (++) (human skin; content 0.5 wt %): 0; Test result (number of subject) (±) (human skin; content 0.5 wt %): 1; Test result (number of subject) (−) (human skin; content 0.5 wt %): 19; Degree of irritation (human skin; content 0.5 wt %): 0.05; Grade for skin irritation (human skin; content 0.5 wt %): I (Degree of irritation 0-0.1: Grade I (unstimulated)); Test result (number of subject) (+) (human skin; content 1.0 wt %): 0; Test result (number of subject) (++) (human skin; content 1.0 wt %): 0; Test result (number of subject) (±) (human skin; content 1.0 wt %): 3; Test result (number of subject) (−) (human skin; content 1.0 wt %): 17; Degree of irritation (human skin; content 1.0 wt %): 0.15; Grade for skin irritation (human skin; content 1.0 wt %): II (Degree of irritation 0.11-0.3: Grade II (weakly stimulated)); Nickel (Ni) Adsorption amount ([4]; content 0.5% aqueous solution): 102 ppm; Nickel (Ni) Adsorption rate ([4]; content 0.5%): 208%; Nickel (Ni) Adsorption amount ([4]; content 1.0% aqueous solution): 115 ppm; Nickel (Ni) Adsorption rate ([4]; content 1.0%): 235%; Nickel (Ni) Adsorption amount ([4]; content 2.0% aqueous solution): 131 ppm; Nickel (Ni) Adsorption rate ([4]; content 2.0%): 267%; Total amount (Cu, Zn, Mn, Ni, Cd) [5]: ≤5 (red) ppm
